Test results reported in patent publication US7138361B2, “Herbicidal heterocycles” (E. I. du Pont de Nemours and Company, priority 2000, dated 2006).

Experiments:
Format in all cases: in vivo
[1] = tested on: Sunflower; test: Test C preemergence; conditions: Rate 250 g/ha, visual evaluation after 12 to 14 days
[2] = tested on: rice (Oryza saliva); test: Test C flooded paddy test; conditions: for Rice plant response rating: Flooded Paddy, scale 0 to 100, 0 no effect, 100 complete control; for Plant response rating, Rice: flooded paddy test, scale 0 to 100 (0 no effect, 100 complete control)
Procedure, shortened: (§1)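 Plants were grown to the 2-leaf stage under flooded paddy conditions and treated. They were then kept in a greenhouse for 12 to 14 days and visually rated against untreated controls on a 0–100 scale, where 0 is no effect and 100 is complete control.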

[3] = tested on: barnyardgrass (Echinochloa crus-galli); test: Test C flooded paddy test; conditions: for Plant response rating, Barnyardgrass: flooded paddy test, scale 0 to 100 (0 no effect, 100 complete control)
Procedure, shortened: as §1

[4] = tested on: woolly cupgrass (Eriochloa villosa); test: Test C preemergence
Procedure, shortened: (§2)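 Formulation: non-phytotoxic solvent mix incl. surfactant. Pre: applied right after planting. Post: 1–4-leaf seedlings. Read: visual 0–100, day 12–14, greenhouse.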

[5] = tested on: johnsongrass (Sorghum halepense); test: Test C preemergence
Procedure, shortened: as §2

[6] = tested on: morningglory (Ipomoea hederacea); test: Test C preemergence
Procedure, shortened: as §2

[7] = tested on: corn (Zea mays); test: Test C preemergence
Procedure, shortened: as §2

[8] = tested on: Nightshade; test: Test C preemergence
[9] = tested on: pigweed (Amaranthus retroflexus); test: Test C preemergence
Procedure, shortened: as §2

[10] = tested on: giant foxtail (Setaria faberii); test: Test C preemergence
Procedure, shortened: as §2

[11] = tested on: Sunflower; test: Test C preemergence; conditions: Rate 500 g/ha, scale 0 to 100
[12] = tested on: goosegrass (Eleusine indica); test: Test C preemergence
Procedure, shortened: as §2

[13] = tested on: crabgrass (Digitaria sanguinalis); test: Test C preemergence
Procedure, shortened: as §2

[14] = tested on: common ragweed (Ambrosia elatior); test: Test C preemergence
Procedure, shortened: as §2

[15] = tested on: Surinam grass (Brachiaria decumbens); test: Test C preemergence
Procedure, shortened: as §2

[16] = tested on: yellow nutsedge (Cyperus esculentus); test: Test C preemergence
Procedure, shortened: as §2

[17] = tested on: cocklebur (Xanthium strumarium); test: Test C preemergence
Procedure, shortened: as §2

[18] = tested on: kochia (Kochia scoparia); test: Test C preemergence
Procedure, shortened: as §2

[19] = tested on: velvetleaf (Abutilon theophrasti); test: Test C preemergence
Procedure, shortened: as §2

[20] = tested on: lambsquarters (Chenopodium album); test: Test C preemergence
Procedure, shortened: as §2

[21] = tested on: soybean (Glycine max); test: Test C preemergence
Procedure, shortened: as §2

[22] = tested on: bermudagrass (Cynodon dactylon); test: Test C preemergence
Procedure, shortened: as §2

[23] = Preemergence, Rate 500 g/ha, scale 0 to 100
[24] = Rate 62 g/ha, scale 0 to 100, 0 no effect, 100 complete control
[25] = preemergence, Rate 250 g/ha, visual evaluation after 12 to 14 days
[26] = preemergence, Rate 125 g/ha, scale 0 to 100, 0 no effect, 100 complete control

With `O=C1C(n2ccc(C3CCCCC3)n2)OCN1c1cccc(C(F)(F)F)c1` (stereo not shown) [Compound 51] the “Plant response rating (0 to 100), Sunflower” value [1] was 30, the “Rice plant response rating” value ([2]; Rate 250 g/ha) was 0 and the “Rice plant response rating” value ([2]; Rate 500 g/ha) was 0. For the same compound, the “Plant response rating, Rice” value ([2]; Rate 62 g/ha) was 0, the “Plant response rating, Rice” value ([2]; Rate 125 g/ha) was 0 and the “Barnyardgrass plant response rating” value ([3]; Flooded Paddy, Rate 250 g/ha, scale 0 to 100, 0 no effect, 100 complete control) was 90. The “Plant response rating, Barnyardgrass” value ([3]; Rate 62 g/ha) was 20, the “Plant response rating, Barnyardgrass” value ([3]; Rate 125 g/ha) was 20 and the “Plant response rating, Cupgrass, Woolly” value [4, 23] was 100. For the same compound, the “Plant response rating, Cupgrass, Woolly” value [4, 24] was 50, the “Plant response rating (0 to 100), Cupgrass, Woolly” value [4, 25] was 80 and the “Plant response rating, Cupgrass, Woolly” value [4, 26] was 50. For the same compound, the “Plant response rating, Johnsongrass” value [5, 23] was 90, the “Plant response rating, Johnsongrass” value [5, 24] was 20 and the “Plant response rating (0 to 100), Johnsongrass” value [5, 25] was 60. For the same compound, the “Plant response rating, Johnsongrass” value [5, 26] was 20, the “Plant response rating, Morningglory” value [6, 23] was 20 and the “Plant response rating, Morningglory” value [6, 26] was 0. For the same compound, the “Plant response rating, Corn” value [7, 23] was 0, the “Plant response rating, Corn” value [7, 24] was 0 and the “Plant response rating (0 to 100), Corn” value [7, 25] was 0. The “Plant response rating, Nightshade” value [8, 24] was 0, the “Plant response rating, Nightshade” value ([8]; Rate 125 g/ha, scale 0 to 100, 0 no effect, 100 complete control) was 0 and the “Plant response rating, Nightshade” value ([8]; Rate 500 g/ha, scale 0 to 100) was 60. The “Plant response rating, Pigweed” value [9, 23] was 30, the “Plant response rating (0 to 100), Pigweed” value [9, 25] was 100 and the “Plant response rating, Pigweed” value [9, 26] was 0. For the same compound, the “Plant response rating, Foxtail, Giant” value [10, 23] was 100, the “Plant response rating, Foxtail, Giant” value [10, 24] was 70 and the “Plant response rating (0 to 100), Foxtail, Giant” value [10, 25] was 100. The “Plant response rating, Foxtail, Giant” value [10, 26] was 0, the “Plant response rating, Sunflower” value [11] was 30 and the “Plant response rating, Goosegrass” value [12, 23] was 100. For the same compound, the “Plant response rating, Goosegrass” value [12, 24] was 80, the “Plant response rating (0 to 100), Goosegrass” value [12, 25] was 100 and the “Plant response rating, Goosegrass” value [12, 26] was 90. For the same compound, the “Plant response rating, Crabgrass” value [13, 23] was 100, the “Plant response rating, Crabgrass” value [13, 24] was 70 and the “Plant response rating (0 to 100), Crabgrass” value [13, 25] was 100. The “Plant response rating, Crabgrass” value [13, 26] was 100, the “Plant response rating, Ragweed, Common” value [14, 23] was 0 and the “Plant response rating (0 to 100), Ragweed, Common” value [14, 25] was 0. For the same compound, the “Plant response rating, Ragweed, Common” value [14, 26] was 0, the “Plant response rating, Surinam grass” value [15, 23] was 70 and the “Plant response rating, Surinam grass” value [15, 24] was 30. The “Plant response rating (0 to 100), Surinam grass” value [15, 25] was 70, the “Plant response rating, Surinam grass” value [15, 26] was 30 and the “Plant response rating, Nutsedge” value [16, 23] was 30. For the same compound, the “Plant response rating, Nutsedge” value [16, 24] was 20, the “Plant response rating (0 to 100), Nutsedge” value [16, 25] was 30 and the “Plant response rating, Nutsedge” value [16, 26] was 20. For the same compound, the “Plant response rating, Cocklebur” value [17, 23] was 0, the “Plant response rating, Cocklebur” value [17, 24] was 0 and the “Plant response rating (0 to 100), Cocklebur” value [17, 25] was 0. The “Plant response rating, Cocklebur” value [17, 26] was 0, the “Plant response rating, Kochia” value [18, 23] was 80 and the “Plant response rating, Kochia” value [18, 24] was 40. The “Plant response rating (0 to 100), Kochia” value [18, 25] was 50, the “Plant response rating, Kochia” value [18, 26] was 50 and the “Plant response rating, Velvetleaf” value [19, 23] was 30. For the same compound, the “Plant response rating (0 to 100), Velvetleaf” value [19, 25] was 30, the “Plant response rating, Velvetleaf” value [19, 26] was 0 and the “Plant response rating, Lambsquarters” value [20, 23] was 100. For the same compound, the “Plant response rating, Lambsquarters” value [20, 24] was 60, the “Plant response rating (0 to 100), Lambsquarters” value [20, 25] was 100 and the “Plant response rating, Lambsquarters” value [20, 26] was 100. The “Plant response rating, Soybean” value [21, 23] was 30, the “Plant response rating (0 to 100), Soybean” value [21, 25] was 20 and the “Plant response rating, Soybean” value [21, 26] was 0. The “Plant response rating, Bermudagrass” value [22, 23] was 100, the “Plant response rating, Bermudagrass” value [22, 24] was 90 and the “Plant response rating (0 to 100 where 0 is no effect and 100 is complete control), Bermudagrass” value [22, 25] was 100. For the same compound, the “Plant response rating, Bermudagrass” value [22, 26] was 100.
